Earlier results as cited in patent publication US20090047371A1, “PHARMACEUTICAL COMPOSITION COMPRISING CURCUMIN AND RESVERATROL AND USES THEREOF IN MEDICAL FIELD” (SAFI INVESTMENT HOLDING AG, priority 2005, published 2009).

Test system: hair loss
Settings: many cases in India and in Europe where Curcumin has been employed

COc1cc(/C=C/C(=O)CC(=O)/C=C/c2ccc(O)c(OC)c2)ccc1O [Curcumin, curcumin]
effect on hair: any effect on hair has never been reported
